Like-named read-outs stand apart in the source and are kept apart here. Marks after values point to notes of the source that are not given here.
Key:
[1] = Active ingredient release from 1 mg capsule / 1 mg tablet; type: physicochemical; conditions: 0.3% SDS in water
Protocol: The release values were compared in a test medium, which comprises 0.3% SDS in water, with paddle stirring, 100 rpm.
Active Ingredient Release:
Active ingredient release measured in 1000 mL water with 0.3% sodium dodecyl sulfate, 100 rpm
Content Determination by HPLC with external calibration
(§1) Column: LiChrosphere 5μ RP-18 encapped, 150×3 mm
(§2) Eluent: acetonitrile/water=45/55

[2] = From the text: Content Determination according to USP/Ph. Eur. for individual capsules after elution through HPLC with external calibration
as §1, §2

[3] = Particle size distribution (Sympatec HELOS, dry dispersion); type: physicochemical
From the text: Particle Size Distribution:
Sympatec HELOS (H0445), dry dispersion system (RODOS), pressure 2 bar

[4] = 1 mg capsule, microcrystals X50 3.4/X100 25 μm
[5] = 1 mg capsule, microcrystals X50 5.2/X100 30 μm
[6] = 1 mg capsule, microcrystals X50 6.6/X100 43 μm
[7] = 1 mg capsule, microcrystals X50 8.7/X100 43 μm
[8] = 1 mg capsule, microcrystals X50 14.1/X100 87 μm
[9] = 1 mg tablet, microcrystals X50 10.6/X100 73 μm
[10] = Example 1, spray-dried microcrystals
[11] = Example 2, primary particle size
[12] = Example 3, primary particle size
[13] = after drying on filter (from ethyl acetate suspension)
[14] = after spray-drying (from ethanol/water suspension)
[15] = suspension in ethanol/water (90/10) with 10% by weight microcrystalline J956, before drying
[16] = suspension in ethyl acetate with 14% by weight microcrystalline J956, before drying

CCNC(=O)ON=Cc1ccc(C2CC3(C)C(CCC3(COC)OC)C3CCC4=CC(=O)CCC4=C23)cc1 (stereo not drawn) [J956, 11β-{4-[(ethylaminocarbonyl)oximinomethyl]phenyl}-17β-methoxy-17α-methoxymethyl-estra-4,9-dien-3-one]
RELEASE in % ([1]; 1 mg capsule, microcrystals X50 3.4/X100 25 μm, 0 min, paddle 100 rpm): 0% | RELEASE in % ([1]; 1 mg capsule, microcrystals X50 3.4/X100 25 μm, 10 min, paddle 100 rpm): 90.7% | RELEASE in % ([1]; 1 mg capsule, microcrystals X50 3.4/X100 25 μm, 20 min, paddle 100 rpm): 97.3% | RELEASE in % ([1]; 1 mg capsule, microcrystals X50 3.4/X100 25 μm, 30 min, paddle 100 rpm): 98.1% | RELEASE in % ([1]; 1 mg capsule, microcrystals X50 3.4/X100 25 μm, 45 min, paddle 100 rpm): 99.9% | RELEASE in % ([1]; 1 mg capsule, microcrystals X50 5.2/X100 30 μm, 0 min, paddle 100 rpm): 0% | RELEASE in % ([1]; 1 mg capsule, microcrystals X50 5.2/X100 30 μm, 10 min, paddle 100 rpm): 89.8% | RELEASE in % ([1]; 1 mg capsule, microcrystals X50 5.2/X100 30 μm, 20 min, paddle 100 rpm): 93.5% | RELEASE in % ([1]; 1 mg capsule, microcrystals X50 5.2/X100 30 μm, 30 min, paddle 100 rpm): 93.4% | RELEASE in % ([1]; 1 mg capsule, microcrystals X50 5.2/X100 30 μm, 45 min, paddle 100 rpm): 95.6% | RELEASE in % ([1]; 1 mg capsule, microcrystals X50 6.6/X100 43 μm, 0 min, paddle 100 rpm): 0% | RELEASE in % ([1]; 1 mg capsule, microcrystals X50 6.6/X100 43 μm, 10 min, paddle 100 rpm): 93.2% | RELEASE in % ([1]; 1 mg capsule, microcrystals X50 6.6/X100 43 μm, 20 min, paddle 100 rpm): 95.9% | RELEASE in % ([1]; 1 mg capsule, microcrystals X50 6.6/X100 43 μm, 30 min, paddle 100 rpm): 96.7% | RELEASE in % ([1]; 1 mg capsule, microcrystals X50 6.6/X100 43 μm, 45 min, paddle 100 rpm): 96.8% | RELEASE in % ([1]; 1 mg capsule, microcrystals X50 8.7/X100 43 μm, 0 min, paddle 100 rpm): 0% | RELEASE in % ([1]; 1 mg capsule, microcrystals X50 8.7/X100 43 μm, 10 min, paddle 100 rpm): 93.5% | RELEASE in % ([1]; 1 mg capsule, microcrystals X50 8.7/X100 43 μm, 20 min, paddle 100 rpm): 96.7% | RELEASE in % ([1]; 1 mg capsule, microcrystals X50 8.7/X100 43 μm, 30 min, paddle 100 rpm): 98.5% | RELEASE in % ([1]; 1 mg capsule, microcrystals X50 8.7/X100 43 μm, 45 min, paddle 100 rpm): 99.7% | RELEASE in % ([1]; 1 mg capsule, microcrystals X50 14.1/X100 87 μm, 0 min, paddle 100 rpm): 0% | RELEASE in % ([1]; 1 mg capsule, microcrystals X50 14.1/X100 87 μm, 10 min, paddle 100 rpm): 90.2% | RELEASE in % ([1]; 1 mg capsule, microcrystals X50 14.1/X100 87 μm, 20 min, paddle 100 rpm): 95.3% | RELEASE in % ([1]; 1 mg capsule, microcrystals X50 14.1/X100 87 μm, 30 min, paddle 100 rpm): 96.0% | RELEASE in % ([1]; 1 mg capsule, microcrystals X50 14.1/X100 87 μm, 45 min, paddle 100 rpm): 96.3% | RELEASE in % ([1]; 1 mg tablet, microcrystals X50 10.6/X100 73 μm, 0 min, paddle, 100 rpm): 0% | RELEASE in % ([1]; 1 mg tablet, microcrystals X50 10.6/X100 73 μm, 10 min, paddle, 100 rpm): 73.7% | RELEASE in % ([1]; 1 mg tablet, microcrystals X50 10.6/X100 73 μm, 20 min, paddle, 100 rpm): 90.3% | RELEASE in % ([1]; 1 mg tablet, microcrystals X50 10.6/X100 73 μm, 30 min, paddle, 100 rpm): 91.85% | RELEASE in % ([1]; 1 mg tablet, microcrystals X50 10.6/X100 73 μm, 45 min, paddle, 100 rpm): 96.6% | CUT value spread: Confidence Interval % [2, 4]: 2.23% | CUT value spread: RSD, % [2, 4]: 3.56% | CUT value spread: Confidence Interval % [2, 5]: 1.20% | CUT value spread: RSD, % [2, 5]: 2.08% | CUT value spread: Confidence Interval % [2, 6]: 1.08% | CUT value spread: RSD, % [2, 6]: 1.57% | CUT value spread: Confidence Interval % [2, 7]: 0.93% | CUT value spread: RSD, % [2, 7]: 1.38% | CUT value spread: Confidence Interval % [2, 8]: 1.77% | CUT value spread: RSD, % [2, 8]: 2.50% | CUT value spread: Confidence Interval % [2, 9]: 1.16% | CUT value spread: RSD, % [2, 9]: 1.70% | Particle size X10 [3, 10]: 1.75 μm | Particle size X50 [3, 10]: 6.04 μm | Particle size X100 [3, 10]: 36 μm | Particle size X10 ([3]; Example 2, final): 4 μm | Particle size X50 ([3]; Example 2, final): 13 μm | Particle size X100 ([3]; Example 2, final): 73 μm | Particle size X10 [3, 11]: 3 μm | Particle size X50 [3, 11]: 9 μm | Particle size X100 [3, 11]: 61 μm | Particle size X10 ([3]; Example 3, final): 1.4 μm | Particle size X50 ([3]; Example 3, final): 5.4 μm | Particle size X100 ([3]; Example 3, final): 30 μm | Particle size X10 [3, 12]: 1.2 μm | Particle size X50 [3, 12]: 3.4 μm | Particle size X100 [3, 12]: 30 μm | average particle diameter (×50) ([3]; after dissolution and re-crystallization of 40 percent of the precipitate from 20 percent by weight ethyl acetate solution): 7.8 μm | Particle diameter X10 [3, 13]: 2.7 μm | Particle diameter X50 [3, 13]: 10.61 μm | Particle diameter X90 [3, 13]: 24 μm | Particle diameter X100 [3, 13]: 73 μm | Particle diameter X10 [3, 14]: 2.25 μm | Particle diameter X50 [3, 14]: 8.03 μm | Particle diameter X90 [3, 14]: 17 μm | Particle diameter X100 [3, 14]: 43 μm | increase of the maximum particle size (×100) ([3]; during dissolution and re-crystallization of 40 percent of the precipitate from 20 percent by weight ethyl acetate solution): scarcely measurable | average particle diameter (×50) ([3]; precipitated from a 20 percent by weight ethyl acetate solution, before dissolution and re-crystallization): 4.9 μm | Particle diameter X10 [3, 15]: 2.11 μm | Particle diameter X50 [3, 15]: 8.6 μm | Particle diameter X90 [3, 15]: 19 μm | Particle diameter X100 [3, 15]: 51 μm | Particle diameter X10 [3, 16]: 2.62*** μm | Particle diameter X50 [3, 16]: 10.4 μm | Particle diameter X90 [3, 16]: 24 μm | Particle diameter X100 [3, 16]: 73 μm

Reference: patent US20030215516A1, “Process for production of crystals of a medicinally effective ingredient, crystals obtained thereby and pharmaceutical preparations containing them” (priority 2002, published 2003)
